Data published in US11208405B2, “Pyrrole derivatives as PLK1 inhibitors” (SENTINEL ONCOLOGY LIMITED, priority 2017, dated 2021).
Counter-ions that a name gives are not always drawn.

How the values were obtained:
Type in all cases: cell-based
HCT116 cells = test: Effects on HCT116 colorectal cancer cell viability (cell titre blue, 72 hours); conditions: Homo sapiens, HCT-116, HCT116 cell line
HeLa cells = test: Arresting cells in mitosis (Mitotic Index, phosphorylated Histone H3 immunofluorescence); conditions: HeLa cell line, 24 hours
Protocol: Assay to Measure the Effects of Compounds of the Invention on Arresting Cells in Mitosis
Inhibiting the ability of PLK1 to bind to its phosphopeptide binding partners through the PBD causes cells to arrest in mitosis. Experimentally, this is measured by assessing the number of cells which are in mitosis at a certain time after treatment with a PLK1-PBD inhibitor by immunofluorescent detection of phosphorylated Histone H3 (pH3), a marker which is only present in mitotic cells. PLK1-PBD inhibitors are expected to cause a dose-dependent increase in pH3-positive cells, which is reported as Mitotic Index (MI)—the percentage of cells which, at a given time, are positive for this mitotic mark. The following protocol has been used to measure MI: • 1. Plate HeLa cells at 10,000/well in 100 μL/well in clear flat-bottom 96-well plates and incubate overnight. • 2. Immediately prior to treatment, dilute compounds in medium in a 96-well round-bottom plate. Make up all compounds at 5 times final desired concentration on cells, and serially dilute 1:2 across the plate ensuring that there is 100 μL of each concentration (start with 200 μl of the top concentration on the left of the plate). […] Treat cells by adding 25 μL from the compound dilution plate to triplicate wells. • 4. Incubate cells with compound for 24 hours. • 5. After 24 hours, fixation and staining is carried out as follows: • 6. Dilute 37% formaldehyde in PBS to give a 12.95% solution by adding 3.5 mL formaldehyde to 6.5 mL of PBS. • 7. Add 50 μL of formaldehyde fixation solution directly to each well of cells (which already contain 125 μL medium). • 8. Incubate at room temp for 10 minutes. • 9. Remove fixative and add 100 μL/well PBS+0.1% Triton X-100 for 10 minutes. • 10. Aspirate and add 100 μL/well PBS+1% BSA. • 11. Aspirate and add 50 μL/well of primary antibody (anti-PH3 [1:2000]/anti-MPM2 [1:1000]) diluted in PBS+1% BSA. Incubate for 1 hour. • 12. Wash×2 with 100 μL/well PBS+1% BSA. • 13. Add 50 μL/well of secondary antibody plus Hoechst stain (anti-rabbit Alexafluor 488 [1:500]; anti-mouse Alexafluor 546 [1:500]+Hoechst 33342 [1:2500 final concentration=4 μg/mL])diluted in PBS+1% BSA. Incubate for 1 hour. • 14. Wash twice with 100 μL/well PBS+1% BSA. • 15. Aspirate and add 100 μL/well PBS. Plates can be stored at 4° C. in PBS for several weeks before scanning on the Cellomics Arrayscan. […] Scan on Cellomics using Target Activation Bioapplication. • 17. MI data emerging from the Cellomic Bioapplication can be used to plot MI versus compound concentration, and subsequently used to generate an EC50 value for each compound using an appropriate graphing/curve-fitting package such as GraphPad Prism.

wild-type HeLa cell line = test: Wild-type versus KRAS HeLa cell viability: wild-type KRAS transgene; conditions: Homo sapiens; HeLa cells expressing wild-type KRAS, 72 hours; read-out: WT GI50
Protocol: (§1) Assay to Measure the Effects of Compounds of the Invention on Wild-Type Versus KRAS HeLa Cell Viability
(§2) Identifying synthetic lethal interactions between targeted small molecule therapies and characterised oncogenic mutations is a goal of modern oncology drug discovery efforts. To this end, PLK1-PBD inhibitors were tested on HeLa cells engineered to inducibly express wild-type or oncogenic KrasG12V transgenes using the FLP-in/T-Rex system (Invitrogen). Cells were plated, and then treated with or without Doxycycline to induce transgene expression, and then treated with serially-diluted PBD inhibitors. After 72 hours of incubation, cell viability was assessed using the Cell Titre Blue reagent (Promega) and a BMG Pherastar plate reader. The effect of PBD inhibition on cell viability with either wild-type or oncogenic G12V KRAS was assessed using the graphing/curve-fitting packages in GraphPad Prism.

KRAS G12V HeLa cell line = test: Wild-type versus KRAS HeLa cell viability: oncogenic KrasG12V transgene; conditions: Homo sapiens; HeLa cells expressing KRAS G12V, 72 hours
Protocol: as §1, §2

[1] = system: HCT116 cells (a mutant KRAS G-13D expressing cell line); test: Drug resistance studies in HCT116 cells; conditions: five times the half maximal growth inhibiting amount, twenty two days

| GI50 (HCT116 cells) [nM] | EC50 (HeLa cells; Homo sapiens, Mitotic Index, read-out: EC50) [nM] | GI50 (wild-type HeLa cell line) [nM] | GI50 (KRAS G12V HeLa cell line) [nM] | SMILES | % mitotic cells (HeLa cells) [%] | formation of drug-resistant colonies [1] |
| --- | --- | --- | --- | --- | --- | --- |
| 30 | 190 | 50 | 20 | CN(C)CCNC(=O)c1ccc(-c2ccc(-c3ccc(Br)cc3)n2-c2ccccc2C(F)(F)F)cc1 [Example 9, 4-[5-(4-Bromophenyl)-1-[2-(trifluoromethyl)phenyl]pyrrol-2-yl]-N-[2-(dimethylamino)ethyl]benzamide Hydrochloride] | 89 |  |
|  |  |  |  | CC[C@@H]1C(=O)N(C)c2cnc(Nc3ccc(C(=O)NC4CCN(C)CC4)cc3OC)nc2N1C1CCCC1 [Example B12536, 4-[[(7R)-8-cyclopentyl-7-ethyl-5,6,7,8-tetrahydro-5-methyl-6-oxo-2-pteridinyl]amino]-3-methoxy-N-(1-methyl-4-piperidinyl)benzamide, reference compound] |  | drug-resistant colonies were formed |
